Here are results for one substance from patent US20100210558A1, “MINIGASTRIN AS A THERAPEUTIC AGENT” (priority 2007, published 2010).

Where no end group is shown, it is not given here.

The subject of one data set is A549 cells. Put plainly: Propidium iodide cell cycle assay. To be noted: peptide 10 micrograms per ml, 24 hours, FACS. The format is cell-based, human.
The nature of data set [1]: Cytotoxicity in HIV-1 assay (MTS cell viability). To be noted: human.
A further data set has as its system Streptococcus pneumoniae. Put plainly: Streptococcus pneumoniae assay. Type of data set: cell-based. Conditions: peptide 10 micrograms per ml, visual reading of growth.
A further data set deals with TNF alpha production. The experiment in a line: TNF alpha production assay (LPS-stimulated macrophages, ELISA). The format is cell-based. Conditions: human macrophages, peptide 10 micrograms per ml, lipopolysaccharide 200 ng/ml, overnight.
Data set [2] has as its system Primary Human endothelial cells (HUVEC). Put plainly: Endothelial cell migration assay. To be noted: peptide 10 micrograms per ml, 22 hours. The format is cell-based.
The subject of data set [3] is spleen cells (IL-2, IL-4, IL-5, IFN-γ, TNF-α protein levels). The experiment in a line: Th1/Th2 cytokine profiling assay. The format is cell-based, Balb/c mice. Conditions: Ovalbumin-restimulated Balb/c spleen cells; peptide 10 micrograms per ml; 72 hours.
For data set [4], the system named is Human Peripheral Blood Mononuclear Cells (PBMC). Put plainly: T cell proliferation assay (PHA, 3H-thymidine). Conditions: peptide 10 micrograms per ml, 3 days. Type of data set: cell-based.
Data set [5] shares this test system. The experiment in a line: B cell proliferation assay (SAC plus Interleukin-2, 3H-thymidine). Type of data set: cell-based. To be noted: peptide 10 micrograms per ml, 3 days.
For a further data set, the system named is Pseudomonas aeruginosa. Put plainly: Pseudomonas aeruginosa assay. The format is cell-based. Conditions: peptide 10 micrograms per ml, visual reading of growth.
Another data set concerns MRSA. The experiment in a line: Methicillin Resistant Staphylococcus Aureus (MRSA) assay. The format is cell-based. Conditions: peptide 10 micrograms per ml, visual reading of growth.
In a further data set the test system is HUVEC. Put plainly: Endothelial tube formation assay. The format is cell-based, human. Conditions: peptide 10 micrograms per ml, 20 hours. The source says: Positive control was vehicle only.
The next data set in a line: in vitro. To be noted: human.
Another data set concerns RAW 264.7 cells. The experiment in a line: Phagocytosis assay (Fluorescein-labeled Escherichia coli). The format is cell-based, mouse. Conditions: peptide 10 micrograms per ml, Fluorescein-labeled E. coli, flow cytometry.
Data set [6] concerns hepatitis B virus (HBV) ayw strain. The experiment in a line: HBV replication assay (secreted HBV DNA, TaqMan PCR). Conditions: HepG2-2.2.15 cells; peptide 10 micrograms per ml; six days; HBV DNA in supernatant.
Data set [7] can be described thus: Cytotoxicity in HCMV assay (CellTiter 96 cell viability). Type of data set: cell-based. To be noted: human, MRC-5 cells (embryonal lung fibroblasts), 6 days incubation. The source says:
(§1) Cells were split twice a week 1:2.

Another data set has as its system HCMV strain AD169. Put plainly: HCMV plaque reduction assay. Conditions: HCMV AD169 in MRC-5 cells; peptide 10 micrograms per ml; 7-10 days. The format is cell-based.
Excerpt: as §1
Ganciclovir was used as positive control.

As for LEEEEEAYGWMDF-NH2 [Minigastrin I], in the data set on A549 cells, the “Cell cycle analysis G0/G1” value was 57.1, the “Cell cycle analysis G2/M” value was 10.3 and the “Cell cycle analysis S” value was determined as 32.6. Besides, the viability at 10 micrograms per ml in [1] was found to be 100%. The “% inhibition” value with Streptococcus pneumoniae is on record as 0.0%. Moreover, the “% of LPS induction” value in the data set on TNF alpha production came to 79.0%. Further, the “% inhibition of migration” value in [2] was −3%. In data set [3], the “IFNγ spleen cells; TH1 response (% of control)” value is 79.5 % of control, the “IL-2 spleen cells (% of control)” value is listed as 149.2 % of control, the “IL-4 spleen cells; TH2 response (% of control)” value is given as 106.6 % of control and the “IL-5 spleen cells; TH2 response (% of control)” value is 66.5 % of control. For the same substance, in data set [3], the “TNF-a spleen cells; TH1 response (% of control)” value is given as 99.0 % of control. Moreover, the “% of PHA induced control” value in [4] is given as 101.1%. In addition, the “% of SAC/IL2 induced control” value in data set [5] amounted to 78.4%. Besides, the “% inhibition” value with Pseudomonas aeruginosa was determined as 0.0%. The “% inhibition” value in the data set on MRSA is 0.0%. Moreover, the “% inhibition of tube formation” value in the data set with HUVEC is 36%. The viability at 144 h, 10 micrograms per ml in the data set “in vitro” worked out at 9.5%. The “% of control phagocytosis” value with RAW 264.7 cells was found to be 145.7%. Also, in data set [6], the “% inhibition of HBV replication in HEP G2 cells” value stood at 49.9%. The viability at 144 h in [7] was found to be 100%. Also, the “% plaque reduction” value in the data set with HCMV strain AD169 stood at 1.4%.
